Experimental data reported in patent US7572817B2, “2,5-disubstituted 3-mercaptopentanoic acid” (AstraZeneca AB, priority 2002, dated 2009).

molecular target: T1, carboxypeptidase U (Homo sapiens, UniProt Q96IY4); experiment: carboxypeptidase U inhibition assay (Hendriks et al., Clinical Chemistry 31, 1936-1939 (1985)); type: biochemical; settings: assay of Hendriks, Scharpé and van Sande
T1 sequence (Q96IY4 115-423): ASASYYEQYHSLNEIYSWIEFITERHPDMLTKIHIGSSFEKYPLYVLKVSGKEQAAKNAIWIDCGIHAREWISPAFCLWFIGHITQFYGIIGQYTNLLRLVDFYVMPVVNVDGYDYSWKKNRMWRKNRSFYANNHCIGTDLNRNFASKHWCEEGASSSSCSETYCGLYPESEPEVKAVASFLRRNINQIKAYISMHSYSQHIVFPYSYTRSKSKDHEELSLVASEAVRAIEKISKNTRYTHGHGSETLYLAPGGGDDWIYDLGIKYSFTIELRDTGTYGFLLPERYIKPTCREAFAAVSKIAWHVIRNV
From the text: The inhibiting effect of the compounds of the present invention was estimated using the assay described in: Dirk Hendriks, Simon Scharpé and Marc van Sande, Clinical Chemistry, 31, 1936-1939 (1985); and Wei Wang, Dirk F. Hendriks, Simon S. Scharpé, The Journal of Biological Chemistry, 269, 15937-15944 (1994).
The activities of certain Examples in the assay described in: Dirk Hendriks, Simon Scharpé and Marc van Sande, Clinical Chemistry, 31, 1936-1939 (1985) are presented in Table I below.

| SMILES | IC50 |
| --- | --- |
| Nc1ccc(CC(C(=O)O)C(S)CCc2cccc(Cl)c2)cn1 (stereo not shown) [Example 6, 2-[(6-Aminopyridin-3-yl)methyl]-5-(3-chlorophenyl)-3-mercaptopentanoic acid] | 800 nM |
| Nc1ccc(CC(C(=O)O)C(S)CCc2ccc3c(c2)OCO3)cn1 (stereo not shown) [Example 7, 2-[(6-Aminopyridin-3-yl)methyl]-5-(1,3-benzodioxol-5-yl)-3-mercaptopentanoic acid] | 800 nM |
| N#CCc1ccc(CCC(S)C(Cc2ccc(N)nc2)C(=O)O)cc1 (stereo not shown) [Example 11, 2-[(6-Aminopyridin-3-yl)methyl]-5-[4-(cyanomethyl)phenyl]-3-mercaptopentanoic acid] | 800 nM |
| Nc1ccc(CC(C(=O)O)C(S)CCC2CCCS2)cn1 (stereo not shown) [Example 18, 2-[(6-Aminopyridin-3-yl)methyl]-3-mercapto-5-(tetrahydro-2-thienyl)pentanoic acid] | 1000 nM |
| Nc1ncc(CC(C(=O)O)C(S)CCc2ccccc2)s1 (stereo not shown) [Example 24, 2-[(2-Amino-1,3-thiazol-5-yl)methyl]-3-mercapto-5-phenylpentanoic acid] | 6300 nM |
| O=C(O)C(CC1C2CCC1CNC2)C(S)CCc1ccccc1 (stereo not shown) [Example 25, 2-(3-Azabicyclo[3.2.1]oct-8-ylmethyl)-3-mercapto-5-phenylpentanoic acid] | 4000 nM |
| Nc1ccc(CC(C(=O)O)C(S)CCc2cccc(C(=O)N3CCc4ccccc4C3)c2)cn1 (stereo not shown) [Example 28, 2-[(6-Aminopyridin-3-yl)methyl]-5-[3-(3,4-dihydroisoquinolin-2(1H)-ylcarbonyl)phenyl]-3-mercaptopentanoic acid] | 800 nM |
| Nc1ccc(CC(C(=O)O)C(S)CCc2cccc(C(=O)OCCc3c(Cl)cccc3Cl)c2)cn1 (stereo not shown) [Example 31, 2-[(6-Aminopyridin-3-yl)methyl]-5-(3-{[2-(2,6-dichlorophenyl)ethoxy]carbonyl}phenyl)-3-mercaptopentanoic acid] | 600 nM |
| Nc1ccc(CC(C(=O)O)C(S)CCc2cccc(C(=O)NCCF)c2)cn1 (stereo not shown) [Example 33, 2-[(6-Aminopyridin-3-yl)methyl]-5-(3-{[(2-fluoroethyl)amino]carbonyl}phenyl)-3-mercaptopentanoic acid] | 600 nM |

The next lines start with the values.

| IC50 | SMILES |
| --- | --- |
| 600 nM | CN(Cc1ccccc1)C(=O)c1cccc(CCC(S)C(Cc2ccc(N)nc2)C(=O)O)c1 (stereo not shown) [Example 41] |
| 600 nM | Nc1ccc(CC(C(=O)O)C(S)CCc2cccc(C(=O)N3CCCC3)c2)cn1 (stereo not shown) [Example 42, 2-[(6-Aminopyridin-3-yl)methyl]-3-mercapto-5-[3-(pyrrolidin-1-ylcarbonyl)phenyl]pentanoic acid] |
| 2000 nM | CCOC(=O)C1CCN(C(=O)c2cccc(CCC(S)C(Cc3ccc(N)nc3)C(=O)O)c2)CC1 (stereo not shown) [Example 43, 2-[(6-Aminopyridin-3-yl)methyl]-5-(3-{[4-(ethoxycarbonyl)piperidin-1-yl]carbonyl}phenyl)-3-mercaptopentanoic acid] |
| 1000 nM | CN(CC#N)S(=O)(=O)c1cccc(CCC(S)C(Cc2ccc(N)nc2)C(=O)O)c1 (stereo not shown) [Example 47, 2-[(6-Aminopyridin-3-yl)methyl]-5-(3-{[(cyanomethyl)(methyl)amino]-sulfonyl}phenyl)-3-mercaptopentanoic acid] |
